pIC50: −log10 of the molar value.
Columns and labels:
UO-31 [1] = assay: Induction of apoptosis in human UO-31 cells assessed as necrotic cells at IC50 by Annexin V-FITC/PI staining based flow cytometry analysis (reference value: 1.19%); assay type: functional
[2] = target: Vascular endothelial growth factor A, long form (Homo sapiens) (UniProt P15692); assay: Inhibition of VEGF-mediated cell migration in HUVEC cells assessed as wound closure at 10 ug/ml measured after 72 hrs by scratch-wound healing assay; assay type: cell-based; set-up: scale not given: the % may be the effect or the level left; conditions: dose 10.0 µg/ml
Vascular endothelial growth factor A, long form (Homo sapiens), sequence (P15692 whole entry): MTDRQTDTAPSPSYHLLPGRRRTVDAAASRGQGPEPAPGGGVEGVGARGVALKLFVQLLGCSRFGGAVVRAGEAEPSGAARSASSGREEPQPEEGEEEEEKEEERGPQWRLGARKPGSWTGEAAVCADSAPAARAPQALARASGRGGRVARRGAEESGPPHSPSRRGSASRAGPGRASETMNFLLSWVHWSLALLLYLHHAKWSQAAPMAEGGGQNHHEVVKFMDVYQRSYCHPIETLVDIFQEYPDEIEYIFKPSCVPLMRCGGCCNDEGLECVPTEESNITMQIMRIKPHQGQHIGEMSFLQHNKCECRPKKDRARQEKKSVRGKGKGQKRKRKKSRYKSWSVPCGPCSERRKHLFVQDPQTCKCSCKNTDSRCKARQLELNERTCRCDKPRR

UO-31 [3] = assay: Induction of cell cycle arrest in human UO-31 cells assessed as cell aggregates at 1.67 uM measured after 24 hrs by PI staining based flow cytometry analysis (reference value: 1.82%); assay type: functional
UO-31 [4] = assay: Induction of apoptosis in human UO-31 cells assessed as early apoptotic cells at IC50 by Annexin V-FITC/PI staining based flow cytometry analysis (reference value: 0.61%); assay type: functional
UO-31 [5] = assay: Induction of apoptosis in human UO-31 cells assessed as Bax protein level by ELISA (reference value: 70.11 +/- 7.45 pg/ml); assay type: functional
UO-31 [6] = assay: Induction of apoptosis in human UO-31 cells assessed as Bcl-2 protein level by ELISA (reference value: 12.19 +/- 0.64 ng/ml); assay type: functional
[7] = Inhibition of PDGFR (unknown origin) incubated for 60 mins in presence of ATP by ADP-Glo kinase assay; set-up: species or system Homo sapiens
UO-31 [8] = assay: Induction of apoptosis in human UO-31 cells assessed as late apoptotic cells at IC50 by Annexin V-FITC/PI staining based flow cytometry analysis (reference value: […]); assay type: functional
SNB-75 [9] = assay: cells; conditions: Homo sapiens, SNB-75, 24 h
UO-31 [10] = assay: Cytotoxicity against human UO-31 cells assessed as growth inhibition at 10 uM relative to control; assay type: functional; conditions: read-out: GI
SNB-75 [11] = assay: Cytotoxicity against human SNB-75 cells assessed as growth inhibition at 10 uM relative to control; assay type: functional; conditions: read-out: GI
UACC-257 = assay: Cytotoxicity against human UACC-257 cells assessed as growth inhibition at 10 uM relative to control; assay type: functional; conditions: read-out: GI
NCI-H226 = assay: Cytotoxicity against human NCI-H226 cells assessed as growth inhibition at 10 uM relative to control; assay type: functional; conditions: read-out: GI
HOP-92 = assay: Cytotoxicity against human HOP-92 cells assessed as growth inhibition at 10 uM relative to control; assay type: functional; conditions: read-out: GI
UO-31 [12] = assay: Induction of apoptosis in human UO-31 cells assessed as increase in caspase-3 level by measuring optical density by Western blot densitometry analysis (reference value: 0.095); assay type: functional
HUVEC = assay: Cytotoxicity against HUVEC cells assessed as effect on cell morphology at 10 ug/ml measured after 72 hrs; assay type: toxicity, cell-based; conditions: human, dose 10 µg/ml
[13] = target: Vascular endothelial growth factor receptor 2 (Homo sapiens, UniProt P35968); assay: Inhibition of recombinant VEGFR2 (unknown origin) by kinase glo detection reagent based assay
Vascular endothelial growth factor receptor 2, sequence (P35968 whole entry): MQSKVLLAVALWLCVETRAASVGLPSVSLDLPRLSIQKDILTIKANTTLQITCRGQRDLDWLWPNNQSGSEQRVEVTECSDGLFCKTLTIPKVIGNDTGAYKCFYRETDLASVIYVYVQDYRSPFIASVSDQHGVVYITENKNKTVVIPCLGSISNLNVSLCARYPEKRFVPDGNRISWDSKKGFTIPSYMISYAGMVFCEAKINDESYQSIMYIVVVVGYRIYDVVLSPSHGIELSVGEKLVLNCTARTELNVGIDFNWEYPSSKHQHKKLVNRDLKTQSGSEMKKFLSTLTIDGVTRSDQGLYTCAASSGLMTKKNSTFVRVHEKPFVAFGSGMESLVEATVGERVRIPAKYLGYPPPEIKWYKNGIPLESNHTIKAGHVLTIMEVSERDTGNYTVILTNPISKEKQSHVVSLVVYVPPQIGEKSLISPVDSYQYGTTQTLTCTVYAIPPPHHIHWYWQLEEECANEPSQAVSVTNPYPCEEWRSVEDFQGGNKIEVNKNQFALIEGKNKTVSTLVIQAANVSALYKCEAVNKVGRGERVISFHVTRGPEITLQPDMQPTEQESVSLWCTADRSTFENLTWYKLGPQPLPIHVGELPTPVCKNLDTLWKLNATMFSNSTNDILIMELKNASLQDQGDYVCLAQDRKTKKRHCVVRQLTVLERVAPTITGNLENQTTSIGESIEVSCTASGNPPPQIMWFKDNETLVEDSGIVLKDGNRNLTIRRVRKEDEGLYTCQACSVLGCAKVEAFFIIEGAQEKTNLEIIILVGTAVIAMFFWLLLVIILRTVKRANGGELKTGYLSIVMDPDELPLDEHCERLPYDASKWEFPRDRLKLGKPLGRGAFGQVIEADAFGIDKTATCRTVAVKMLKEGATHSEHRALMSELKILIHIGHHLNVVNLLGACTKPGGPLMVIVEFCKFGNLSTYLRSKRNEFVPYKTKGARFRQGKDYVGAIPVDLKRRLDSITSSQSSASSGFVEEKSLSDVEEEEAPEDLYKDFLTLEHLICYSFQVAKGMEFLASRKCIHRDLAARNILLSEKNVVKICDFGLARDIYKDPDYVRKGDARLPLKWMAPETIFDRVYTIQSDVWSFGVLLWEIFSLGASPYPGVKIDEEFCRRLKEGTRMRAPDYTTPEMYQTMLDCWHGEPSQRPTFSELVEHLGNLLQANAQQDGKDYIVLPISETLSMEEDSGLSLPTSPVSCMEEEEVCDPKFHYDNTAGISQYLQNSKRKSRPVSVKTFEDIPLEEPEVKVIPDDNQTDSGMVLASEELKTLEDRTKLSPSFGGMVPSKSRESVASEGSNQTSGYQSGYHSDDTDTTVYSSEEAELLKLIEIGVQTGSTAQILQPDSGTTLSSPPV

BT-549 = assay: Cytotoxicity against human BT-549 cells assessed as growth inhibition at 10 uM relative to control; assay type: functional; conditions: read-out: GI
IGROV-1 = assay: Cytotoxicity against human IGROV-1 cells assessed as growth inhibition at 10 uM relative to control; assay type: functional; conditions: read-out: GI
MDA-MB-231 = assay: Cytotoxicity against human MDA-MB-231 cells assessed as growth inhibition at 10 uM relative to control; assay type: functional; conditions: read-out: GI
NCI-H522 = assay: Cytotoxicity against human NCI-H522 cells assessed as growth inhibition at 10 uM relative to control; assay type: functional; conditions: read-out: GI
HOP-62 = assay: Cytotoxicity against human HOP-62 cells assessed as growth inhibition at 10 uM relative to control; assay type: functional; conditions: read-out: GI
SK-OV-3 = assay: Cytotoxicity against human SK-OV-3 cells assessed as growth inhibition at 10 uM relative to control; assay type: functional; conditions: read-out: GI
CAKI-1 = assay: Cytotoxicity against human CAKI-1 cells assessed as growth inhibition at 10 uM relative to control; assay type: functional; conditions: read-out: GI
NCI-H322M = assay: Cytotoxicity against human NCI-H322M cells assessed as growth inhibition at 10 uM relative to control; assay type: functional; conditions: read-out: GI
UO-31 [14] = assay: cells; conditions: Homo sapiens, UO-31, 24 h
EKVX = assay: Cytotoxicity against human EKVX cells assessed as growth inhibition at 10 uM relative to control; assay type: functional; conditions: read-out: GI
U-251 = assay: Cytotoxicity against human U-251 cells assessed as growth inhibition at 10 uM relative to control; assay type: functional; conditions: read-out: GI
UACC-62 = assay: Cytotoxicity against human UACC-62 cells assessed as growth inhibition at 10 uM relative to control; assay type: functional; conditions: read-out: GI
ACHN = assay: Cytotoxicity against human ACHN cells assessed as growth inhibition at 10 uM relative to control; assay type: functional; conditions: read-out: GI
SF-539 = assay: Cytotoxicity against human SF-539 cells assessed as growth inhibition at 10 uM relative to control; assay type: functional; conditions: read-out: GI
NCI-H23 = assay: Cytotoxicity against human NCI-H23 cells assessed as growth inhibition at 10 uM relative to control; assay type: functional; conditions: read-out: GI
CCRF-CEM = assay: Cytotoxicity against human CCRF-CEM cells assessed as growth inhibition at 10 uM relative to control; assay type: functional; conditions: read-out: GI
NCI/ADR-RES = assay: Cytotoxicity against human NCI/ADR-RES cells assessed as growth inhibition at 10 uM relative to control; assay type: functional; conditions: read-out: GI

**Q.** For CNC(=O)c1cc(Oc2ccc(NC(=O)Nc3ccc(Cl)c(C(F)(F)F)c3)cc2)ccn1 [SORAFENIB], which Activity (UO-31 [1]) is on record?
**A.** 4.72%

**Q.** And the Activity [2]?
**A.** 46.7%

**Q.** What about the Activity (UO-31 [3]) of the same compound?
**A.** 1.47%

**Q.** And the Activity (UO-31 [4])?
**A.** 19.42%

**Q.** And the Activity (UO-31 [5])?
**A.** 409.2 pg/mL

**Q.** And the Activity (UO-31 [6])?
**A.** 3.898 ng/mL

**Q.** And the pIC50 [7]?
**A.** 7.40

**Q.** And the Activity (UO-31 [8])?
**A.** 31.17%

**Q.** With O=C(CSc1nc2ccccc2c(=O)n1-c1ccccc1)Nc1ccc(S(=O)(=O)Nc2ccc(Cl)nn2)cc1 as the compound, how does the pIC50 (SNB-75 [9]) read?
**A.** 4.32

**Q.** And the inhibition of growth at 10 µM (UO-31 [10])?
**A.** 21%

**Q.** And the inhibition of growth at 10 µM (SNB-75 [11])?
**A.** 27%

**Q.** And the inhibition of growth at 10 µM (UACC-257)?
**A.** 12%

**Q.** What about the inhibition of growth at 10 µM (NCI-H226) of the same compound?
**A.** 10%

**Q.** And the inhibition of growth at 10 µM (HOP-92)?
**A.** 11%

**Q.** Which results are given for O=C(CSc1nc2ccccc2c(=O)n1CCc1ccccc1)Nc1ccc(S(=O)(=O)Nc2ccc(Cl)nn2)cc1?
**A.** OD (UO-31 [12]): 0.772; Activity (HUVEC): Non-Toxic; pIC50 [13]: 7.18

**Q.** With CCCCn1c(SCC(=O)Nc2ccc(S(=O)(=O)Nc3ccc(Cl)nn3)cc2)nc2ccccc2c1=O as the compound, how does the inhibition of growth at 10 µM (BT-549) read?
**A.** 14%

**Q.** And the inhibition of growth at 10 µM (IGROV-1)?
**A.** 15%

**Q.** And the inhibition of growth at 10 µM (MDA-MB-231)?
**A.** 10%

**Q.** What about the inhibition of growth at 10 µM (NCI-H522) of the same compound?
**A.** 13%

**Q.** What about the inhibition of growth at 10 µM (HOP-62) of the same compound?
**A.** 14%

**Q.** And the inhibition of growth at 10 µM (SK-OV-3)?
**A.** 16%

**Q.** And the inhibition of growth at 10 µM (CAKI-1)?
**A.** 18%

**Q.** And the inhibition of growth at 10 µM (NCI-H322M)?
**A.** 12%

**Q.** And the inhibition of growth at 10 µM (UO-31 [10])?
**A.** 29%

**Q.** What about the inhibition of growth at 10 µM (SNB-75 [11]) of the same compound?
**A.** 23%

**Q.** And the pIC50 (UO-31 [14])?
**A.** 4.83

**Q.** And the inhibition of growth at 10 µM (EKVX)?
**A.** 11%

**Q.** What about the inhibition of growth at 10 µM (U-251) of the same compound?
**A.** 10%

**Q.** What about the inhibition of growth at 10 µM (NCI-H226) of the same compound?
**A.** 10%

**Q.** And the inhibition of growth at 10 µM (UACC-62)?
**A.** 14%

**Q.** What about the inhibition of growth at 10 µM (HOP-92) of the same compound?
**A.** 32%

**Q.** For NS(=O)(=O)c1ccc(-n2c(SCC(=O)Nc3ccc(S(=O)(=O)Nc4ccc(Cl)nn4)cc3)nc3ccccc3c2=O)cc1, which inhibition of growth at 10 µM (ACHN) is on record?
**A.** 10%

**Q.** What about the inhibition of growth at 10 µM (SF-539) of the same compound?
**A.** 11%

**Q.** What about the inhibition of growth at 10 µM (UO-31 [10]) of the same compound?
**A.** 17%

**Q.** What about the inhibition of growth at 10 µM (NCI-H23) of the same compound?
**A.** 14%

**Q.** What about the inhibition of growth at 10 µM (UACC-257) of the same compound?
**A.** 10%

**Q.** And the inhibition of growth at 10 µM (CCRF-CEM)?
**A.** 10%

**Q.** And the inhibition of growth at 10 µM (HOP-92)?
**A.** 24%

**Q.** What about the inhibition of growth at 10 µM (NCI/ADR-RES) of the same compound?
**A.** 11%

Source: ChEMBL document CHEMBL5385860, “Antiproliferative, antiangiogenic and apoptotic effect of new hybrids of quinazoline-4(3H)-ones and sulfachloropyridazine” (Eur J Med Chem, 2023)
